We go through five compounds from patent US20050234030A1, “Modulators of CRTH2, COX-2 and FAAH” (priority 2004, published 2005).

The term melting point denotes the temperature of the solid-liquid transition. With `COc1cc2c(CC(=O)O)c(C)n(C(=O)C3CCCCC3)c2cc1F` [[1-(cyclohexylcarbonyl)-6-fluoro-5-methoxy-2-methyl-1H-indol-3-yl]acetic acid], the melting point amounted to 104 °C.

Compound `Cc1c(CC(=O)O)c2cc(O)c(F)cc2n1C(=O)c1cccs1` [[6-fluoro-5-hydroxy-2-methyl-1-(thien-2-ylcarbonyl)-1H-indol-3-yl] acetic acid] gave a melting point of 219 °C. As for `Cc1c(CC(=O)O)c2cc(O)ccc2n1C(=O)N1CCCCC1` [[5-hydroxy-2-methyl-1-(piperidin-1-ylcarbonyl)-1H-indol-3-yl]acetic acid], the figure is 235 °C. As for `COc1ccc2c(c1)c(CC(=O)O)c(C)n2C(=O)C1CCCCC1` [[1-(cyclohexylcarbonyl)-5-methoxy-2-methyl-1H-indol-3-yl]acetic acid], the figure is 129 °C; as for `COc1cc2c(CC(=O)O)c(C)n(C(=O)c3cccs3)c2cc1F` [[6-fluoro-5-methoxy-2-methyl-1-(thien-2-ylcarbonyl)-1H-indol-3-yl]acetic acid], 137 °C.
